Laboratory results as given in article PMC4862670, “Biochemical Effect of Resistance Mutations against Synergistic Inhibitors of RSV RNA Polymerase” (PLoS ONE, 2016).
Where “and” joins values, the source holds several entries; their conditions need not be identical. Identical values can stand only once. Like-named read-outs stand apart in the source and are kept apart here.

Legend:
[1] = molecular target: T1, QUAD RSV L-P (M628L, A789V, L795I, I796V) (Human respiratory syncytial virus A, UniProt P28887, A789V/I796V/L795I/M628L); assay: Single nucleotide incorporation (primer extension) by recombinant RSV L-P, QUAD mutant; type: biochemical; details: for Discrimination (Km NTP analog / Km NTP) / Km: QUAD RSV L-P; for Km: single nucleotide incorporation; for Resistance (QUADdiscrimination / WTdiscrimination): QUAD vs WT RSV L-P
WT RSV L-P [2] = molecular target: T2, WT RSV L-P (Human respiratory syncytial virus A, UniProt P28887); type: biochemical
T2 construct: made in house; host or cells: insect cells
Method: The recombinant RSV polymerase complex was produced by co-expressing the L and P proteins of RSV in insect cells as previously described. Unless otherwise specified, RNA polymerase reaction samples consisted of 0.2 μM of an oligonucleotide template sequence derived from the RSV leader promoter (5'-[…]-3') and 0.2 μM recombinant RSVL-P polymerase together with 200 μM 5'-pACGC primer, mixed in a buffer containing 20 mM Tris pH 7.5, 10 mM KCl, 2 mM dithiothreitol, 0.5% triton X-100, 10% DMSO, 0.2 U/μL RNasin (Ambion), and 6 mM MgCl2. Reactions were started by adding specific NTPs to a final volume of 10 μL and incubated at 30°C. The radioisotope tracer used for this assay was α^33P-GTP. To measure the incorporation of GTP analogs, the oligonucleotide template sequence was modified to 5'-[…]-3'. Reactions were stopped after 30 minutes by adding an equal volume of gel loading buffer (Ambion). Samples were denatured at 95°C for 5 minutes, and run for 1.5 hours at 80 W in a 22.5% polyacrylamide urea sequencing gel. After the gel was dried, the product of migration was exposed to a phosphor-screen and scanned on a Typhoon phosphorimager (GE Healthcare) and quantified using ImageQuant (GE Healthcare). For each enzyme, the level of NTP analog discrimination was calculated as Km NTP analog / Km NTP, and the corresponding resistance as Mutantdiscrimination / WTdiscrimination.

[3] = tested on: WT RSV L polymerase-dependent luciferase activity; assay: cells; type: cell-based, Respiratory syncytial virus (RSV); details: human respiratory syncytial virus, HEp-2 cells, minigenome luciferase
[4] = tested on: QUAD RSV L polymerase-dependent luciferase activity; assay: cells; type: cell-based, Respiratory syncytial virus (RSV), HEp-2 cells
[5] = molecular target: T1, QUAD RSV L-P (M628L, A789V, L795I, I796V); details: cited from earlier work
WT RSV L-P [6] = molecular target: T2, WT RSV L-P; details: cited from earlier work
Y1631H RSV polymerase = Y1631H RSV polymerase (Human respiratory syncytial virus A, UniProt P28887, Y1631H); assay: Single nucleotide incorporation, Y1631H mutant; type: biochemical
WT RSV L-P [7] = molecular target: T2, WT RSV L-P; type: biochemical; details: 10 μM
[8] = molecular target: RSV polymerase containing the Y1631H mutation in the L subunit (Human respiratory syncytial virus A, UniProt P28887, Y1631H); assay: Biotin-primer extension RdRp assay, Y1631H; type: biochemical; details: Y1631H IC50 vs WT IC50
RSV L-P dimer = molecular target: T3, RSV L-P dimer (Human respiratory syncytial virus A, UniProt P28887); assay: Ni-NTA pull-down assay of RSV L-P; type: binding; details: 10 μM, 30 minutes pre-incubation
T3 construct: made in house; host or cells: insect cells
Method: The enzyme-inhibitor complex was pre-incubated for 30 minutes, after which nickel beads were used to pull down the histidine-tagged P subunit. The bound protein was washed on the beads and visualized by SDS PAGE. When the experiment was performed in the presence of DMSO, the untagged L subunit remained noncovalently bound to P (Fig 6A, lane 1).
Beads were collected by centrifugation, and washed in 500 μL buffer containing 20mM Tris pH 7.5, 10 mM KCl, 6 mM MgCl2, 0.01% Triton X-100, and 2 mM DTT. Beads were resuspended in 20 μL loading buffer (4% SDS, 20% glycerol, 0.12M Tris pH 7, and 10% BME) and heated for 5 minutes at 95°C. Samples were run on a 4% to 12% SDS PAGE gel alongside PageRuler prestained marker (Invitrogen) and stained using SimplyBlue SafeStain (Thermo Fisher Scientific).

[9] = tested on: [N-]=[N+]=N[C@]1(COP(=O)(O)OP(=O)(O)OP(=O)(O)O)O[C@@H](n2ccc(N)nc2=O)[C@H](F)[C@@H]1O; assay: purified protein, by the assay type; details: pH 7.5
[10] = tested on: Nc1ccn([C@@H]2O[C@](CCl)(COP(=O)(O)OP(=O)(O)OP(=O)(O)O)[C@@H](O)[C@H]2O)c(=O)n1; assay: purified protein, by the assay type; details: pH 7.5
[11] = WT RSV L-P, single nucleotide incorporation

**Q.** For 2'F-4'ClCH2-ATP, which “Discrimination (Km NTP analog / Km NTP)” value [1] is on record?
**A.** 12.9±1.1 fold

**Q.** And the Km [1]?
**A.** 23.6 ± 5.8 µM

**Q.** And the “Resistance (QUADdiscrimination / WTdiscrimination)” value [1]?
**A.** 1.1 fold

**Q.** What about the Chain termination effect (WT RSV L-P [2]) of the same compound?
**A.** immediate chain terminator

**Q.** What about the “Discrimination (Km NTP analog / Km NTP)” value (WT RSV L-P [2]) of the same compound?
**A.** 12 fold and 12±2.5 fold

**Q.** What about the Km (WT RSV L-P [2]) of the same compound?
**A.** 27 ± 7.8 µM

**Q.** For 2'F-4'ClCH2-GTP, which “Discrimination (Km NTP analog / Km NTP)” value [1] is on record?
**A.** 94.4 fold and 94.4±17.7 fold

**Q.** And the Km [1]?
**A.** 31.1 ± 15 µM

**Q.** What about the “Resistance (QUADdiscrimination / WTdiscrimination)” value [1] of the same compound?
**A.** 17 fold

**Q.** And the Chain termination effect (WT RSV L-P [2])?
**A.** did not completely block RNA synthesis

**Q.** What about the “Discrimination (Km NTP analog / Km NTP)” value (WT RSV L-P [2]) of the same compound?
**A.** 5.6±0.6 fold

**Q.** What about the Km (WT RSV L-P [2]) of the same compound?
**A.** 5.8 ± 1.4 µM

**Q.** Which “Resistance (QUADdiscrimination / WTdiscrimination)” value [1] does the source give for `C[C@@H](F)[C@]1(COP(=O)(O)OP(=O)(O)OP(=O)(O)O)O[C@@H](n2ccc(N)nc2=O)[C@H](F)[C@@H]1O` [1-fluoroethyl (FCH3CH2)] here?
**A.** > 3 fold

**Q.** For `Nc1ccn([C@@H]2O[C@@](CO)(CBr)[C@@H](O)[C@H]2F)c(=O)n1` [2'F-4'BrCH2-cytidine], which EC50 [3] is on record?
**A.** 1600 ± 600 nM

**Q.** And the “Loss in inhibition potency in the presence of the QUAD mutations” value ([4]; QUAD vs WT minigenome)?
**A.** 47 fold

**Q.** With `[N-]=[N+]=N[C@]1(COP(=O)(O)OP(=O)(O)OP(=O)(O)O)O[C@@H](n2ccc(N)nc2=O)[C@H](F)[C@@H]1O` [2'F-4'N3-CTP] as the compound, how does the “Resistance (QUADdiscrimination / WTdiscrimination)” value ([1]; listed as azido (N3-)) read?
**A.** no resistance

**Q.** With `[N-]=[N+]=N[C@]1(CO)O[C@@H](n2ccc(N)nc2=O)[C@H](F)[C@@H]1O` [2'F-4'N3-cytidine] as the compound, how does the EC50 [3] read?
**A.** 1300 ± 300 nM

**Q.** What about the EC50 ([4]; human respiratory syncytial virus, QUAD L, HEp-2 cells, minigenome luciferase) of the same compound?
**A.** 2200 ± 500 nM

**Q.** Which results are given for `Nc1ccn([C@@H]2O[C@](CCl)(COP(=O)(O)OP(=O)(O)OP(=O)(O)O)[C@@H](O)[C@H]2F)c(=O)n1` [ALS-8112-TP, 2'F-4'ClCH2-cytidine triphosphate]?
**A.** Resistance (increase in discrimination by QUAD) ([5]; QUAD vs WT RSV L-P): 4.6 fold; Discrimination (WT RSV L-P [6]; WT RSV polymerase): 13 fold; Resistance (QUADdiscrimination / WTdiscrimination) ([1]; listed as chloromethyl (ClCH2)): > 3 fold; Discrimination of the CTP analog (Y1631H RSV polymerase): 18 fold

**Q.** For `O=C(NC1CC1)c1cc2c(s1)-c1ccccc1N(C(=O)c1ccc(NC(=O)c3cccnc3N3CCC4(CC3)COC4)cc1)CC2` [AZ-27], which “Inhibition of +1 and +2 RNA products” value (WT RSV L-P [7]; 30-minute reaction) is on record?
**A.** no inhibition

**Q.** What about the “Inhibition of +4–7 RNA products” value (WT RSV L-P [7]; 30-minute reaction, position +4 and beyond) of the same compound?
**A.** 75–85%

**Q.** And the “Inhibition behavior with respect to NTPs” value (WT RSV L-P [7]; ATP+CTP from 1 to 100 μM)?
**A.** non-competitive inhibition behavior

**Q.** And the “Resistance compared to the WT enzyme” value [8]?
**A.** 940 fold

**Q.** And the “Effect on L binding to P (L-P complex stability)” value (RSV L-P dimer)?
**A.** did not inhibit the ability of L to bind to P

**Q.** With `Nc1ccn([C@@H]2O[C@](CBr)(COP(=O)(O)OP(=O)(O)OP(=O)(O)O)[C@@H](O)[C@H]2F)c(=O)n1` [bromomethyl (BrCH2)] as the compound, how does the “Resistance (QUADdiscrimination / WTdiscrimination)” value [1] read?
**A.** > 3 fold

**Q.** Which “Resistance (QUADdiscrimination / WTdiscrimination)” value [1] does the source give for `Nc1ccn([C@@H]2O[C@@](COP(=O)(O)OP(=O)(O)OP(=O)(O)O)(C3CC3)[C@@H](O)[C@H]2F)c(=O)n1` [cyclopropyl (CH2CH2CH2)] here?
**A.** no resistance

**Q.** Which “Resistance (QUADdiscrimination / WTdiscrimination)” value [1] does the source give for `Nc1ccn([C@@H]2O[C@](CF)(COP(=O)(O)OP(=O)(O)OP(=O)(O)O)[C@@H](O)[C@H]2F)c(=O)n1` [fluoromethyl (FCH2)] here?
**A.** > 3 fold

**Q.** Which “Resistance (QUADdiscrimination / WTdiscrimination)” value [1] does the source give for `CSC[C@]1(COP(=O)(O)OP(=O)(O)OP(=O)(O)O)O[C@@H](n2ccc(N)nc2=O)[C@H](F)[C@@H]1O` [methyl-thio-methyl (CH3SCH2)] here?
**A.** no resistance

**Q.** Which Km [9] does the source give for (Human respiratory syncytial virus A2) here?
**A.** 0.62 ± 0.042 µM

**Q.** What about the Km [10] of the same compound?
**A.** 19.7 ± 6.7 µM

**Q.** With ATP [reference compound] as the compound, how does the Km [1] read?
**A.** 1.8 ± 0.3 µM

**Q.** What about the Km (WT RSV L-P [2]; [11]) of the same compound?
**A.** 2.2 ± 0.2 µM

**Q.** With CTP [reference compound] as the compound, how does the Km ([5]; QUAD RSV L-P, n = 2, read-out: Km CTP) read?
**A.** 0.028 ± 0.005 µM

**Q.** And the Km (WT RSV L-P [6]; WT RSV L-P, n = 4, read-out: Km CTP)?
**A.** 0.056 ± 0.01 µM

**Q.** And the Km (Y1631H RSV polymerase)?
**A.** 0.042 ± 0.009 µM

**Q.** Which Km [1] does the source give for GTP [reference compound] here?
**A.** 0.3 ± 0.1 µM

**Q.** What about the Km (WT RSV L-P [2]; [11]) of the same compound?
**A.** 1.1 ± 0.4 µM
